The assay deals with caspase 7. Description: Cleaved-caspase 7 immunofluorescence in U373 cells. The class given is cell-based, human. Particulars: U373, 6 h; gibbilimbol B/eriopodol A 30 µg/mL, erioquinol 10 µg/mL. As to the method: Using published protocols, MCF7 or U373 cells cultured in 120-mm coverslips were fixed in 4% paraformaldehyde in 0.1 M PB, pH 7.4, for 10 min. Cells were pre-incubated for 1 h min with 5% of normal goat serum (Life Technologies, Monza, Italy) in 0.1 M PB (pH 7.4) containing 0.1% Triton X-100, before overnight incubation with the rabbit monoclonal anti-cleaved caspase 7 (Cell Signaling Technology, Danvers, MA, USA). In double-label immunofluorescence experiments, the mouse monoclonal anti-cytochrome c primary antibody (Cell Signaling Technology) was used in conjunction with the rabbit monoclonal primary antibody directed to COX IV (Cell Signaling Technology). For fluorescence detection, coverslips were stained with the appropriate Alexa Fluor secondary antibodies (Life Technologies) and mounted on glass slides in a ProLong Gold Antifade Mountant (Life Technologies). DAPI and/or fluorescein phalloidin (cytoskeleton detection) staining was also used. Cells were analysed with a DMI4000 B automated inverted microscope equipped with a DCF310 digital camera (Leica Microsystems, Wetzlar, Germany). When indicated, confocal imaging was performed with a TCS SP8 System (Leica Microsystems). Image acquisitions were controlled by the Leica Application Suite X.

Regarding `CCCCCC/C=C/CCc1ccc(O)cc1` [Gibbilimbol B, (E)-4-(dec-3′-enyl)phenol], the “activation of caspase 7” value is given as “activation of caspase 7”.

Source of the values: paper PMC6770071, “XIAP as a Target of New Small Organic Natural Molecules Inducing Human Cancer Cell Death” (Cancers, 2019).
